The record followed here is patent publication US10457707B2, “Substituted urea depsipeptide analogs as activators of the CLPP endopeptidase” (priority 2015, dated 2019).

One test has as its target T1, Sa-ClpP (Staphylococcus aureus, UniProt Q2G036).
T1 construct: made in house; host or cells: E. coli BL21(DE3)
T1 sequence (Q2G036 1-195): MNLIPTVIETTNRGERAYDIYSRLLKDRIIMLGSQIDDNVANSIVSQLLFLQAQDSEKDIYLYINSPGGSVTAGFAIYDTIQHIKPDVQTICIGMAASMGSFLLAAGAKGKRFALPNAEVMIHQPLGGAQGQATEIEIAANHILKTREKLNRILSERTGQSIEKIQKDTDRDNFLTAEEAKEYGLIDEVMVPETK
The test can be described thus: Sa-ClpP casein-BODIPY ClpP activation assay, method variant not marked in Table 5. It is filed as biochemical, S. aureus. The method, boiled down:
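Purified S. aureus ClpP (10 μM) incubated with 25 μg/ml BODIPY FL casein and compound (0-1000 μM) in pH 8 Tris/KCl/TCEP at 37° C. Fluorescence (485/528 nm) read every 5 min over 45 min; reaction velocities fitted to dose-response for EC50 (50% activation), triplicate.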

Test [1] relates to Streptococcus pneumoniae, R6. The test can be described thus: Minimal inhibitory concentration assay. It is filed as cell-based. The settings on record: read-out: Minimal Inhibitory Concentrations S. pneumoniae R6. A digest of the protocol:
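Microbroth dilution with two-fold serial compound dilutions in broth, incubated aerobically overnight at 37° C. MIC taken as the lowest concentration preventing bacterial growth.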

Values after ≈ are worked out from the molar mass of the structure shown. *1 amine or outer side, *2 acyl side, *3 side chain or, on linkers, in order; H or OH if unused. Where a SMILES comes first, the peptide text is derived from it. Bridges are numbered along the chain shown (N, C = ends). [ ]: non-standard residue; d: D form. The star is where a group is joined. Piperazine(2S-CO,4-Me) = CN1CCN[C@H](C(=O)O)C1; Phe(3,5-F2) = N[C@@H](Cc1cc(F)cc(F)c1)C(=O)O; NH(4-Cl-2-F-phenyl) = Fc1cc(Cl)ccc1N*; Pro(4R-Me) = C[C@H]1CN[C@H](C(=O)O)C1; CO = O=C([*:1])[*:2]

On to `C[C@@H]1C[C@H]2C(=O)OC[C@H](NC(=O)[C@H](Cc3cc(F)cc(F)c3)NC(=O)Nc3ccc(Cl)cc3F)C(=O)N3CCC[C@H]3C(=O)N3CCN(C)C[C@H]3C(=O)N[C@@H](C)C(=O)N2C1` [Compound 330, (S)-2-(3-(4-chloro-2-fluorophenyl)ureido)-3-(3,5-difluorophenyl)-N-((6aS,12S,15aS,17R,21S,23aS)-2,17,21-trimethyl-6,11,15,20,23-pentaoxooctadecahydro-2H,6H,11H,15H-pyrazino[2,1-i]dipyrrolo[2,1-c:2′,1′-l][1]oxa[4,7,10,13]tetraazacyclohexadecin-12-yl)propanamide] ({NH(4-Cl-2-F-phenyl)-CO}-[Phe(3,5-F2)]SP[Piperazine(2S-CO,4-Me)]A[Pro(4R-Me)]; ester 2-C), for which the EC50 (usually the concentration at which the effect is half-maximal) on Sa-ClpP was determined as 0.29 ± 0.02 µM. The MIC in test [1] turned out to be 0.039 µM (≈ 0.033 µg/mL).
